Assay [1] can be described thus: C. albicans growth with fluconazole, confirmation, fluorescence, retest (AID 2467). It is filed as functional, cell-based.
Another assay deals with Vero. Briefly: cells. It is filed as functional. The settings on record: Chlorocebus sabaeus.
Assay [2] is described as follows: human group III sPLA2 inhibitors, dose response, biochemical, QFRET, IC50 (AID 743457).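 Also: green fluorescence rise as the enzyme cleaves BODIPY PC-A2 in liposomes; potency for inhibition of the enzyme.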
Assay [3] can be described thus: NIH-3T3 fibroblast cytotoxicity, dose response, cytotoxicity control, cell-based, fluorescence, Alamar Blue, secondary assay (AID 2327).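 Also: NIH-3T3 mouse fibroblasts cultured with fluconazole at 8 µg/mL.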 It is filed as functional.
For another assay, the target named is Exodeoxyribonuclease V (Escherichia coli (strain K12), UniProt P04993+P07648+P08394). Briefly: E. coli RecBCD inhibitors, dose response, counter-screen for AddAB inhibitor project, absorbance, V66 E. coli, mutant T4 phage (AID 492957). It is filed as functional, cell-based, Escherichia coli str. K-12 substr. MG1655. A general note: The purpose of a counterscreen is to sort out artefacts and off-target activity.
Sequence of Exodeoxyribonuclease V (P04993 whole entry): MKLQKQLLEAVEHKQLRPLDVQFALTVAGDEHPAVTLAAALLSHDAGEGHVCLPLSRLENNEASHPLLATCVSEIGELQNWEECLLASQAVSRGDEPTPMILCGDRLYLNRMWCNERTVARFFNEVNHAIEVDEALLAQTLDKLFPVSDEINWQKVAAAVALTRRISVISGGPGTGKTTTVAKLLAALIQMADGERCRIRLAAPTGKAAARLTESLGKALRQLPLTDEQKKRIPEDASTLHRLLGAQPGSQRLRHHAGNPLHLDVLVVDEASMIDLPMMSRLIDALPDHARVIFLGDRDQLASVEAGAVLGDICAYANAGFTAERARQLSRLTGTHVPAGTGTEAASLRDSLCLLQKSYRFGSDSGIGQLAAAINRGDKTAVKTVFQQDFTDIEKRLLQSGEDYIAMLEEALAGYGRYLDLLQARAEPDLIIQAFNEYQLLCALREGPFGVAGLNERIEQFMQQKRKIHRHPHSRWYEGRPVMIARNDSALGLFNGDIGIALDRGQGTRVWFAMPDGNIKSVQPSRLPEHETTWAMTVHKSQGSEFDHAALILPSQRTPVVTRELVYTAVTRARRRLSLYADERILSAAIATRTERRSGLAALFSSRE
Sequence of Exodeoxyribonuclease V (P07648 whole entry): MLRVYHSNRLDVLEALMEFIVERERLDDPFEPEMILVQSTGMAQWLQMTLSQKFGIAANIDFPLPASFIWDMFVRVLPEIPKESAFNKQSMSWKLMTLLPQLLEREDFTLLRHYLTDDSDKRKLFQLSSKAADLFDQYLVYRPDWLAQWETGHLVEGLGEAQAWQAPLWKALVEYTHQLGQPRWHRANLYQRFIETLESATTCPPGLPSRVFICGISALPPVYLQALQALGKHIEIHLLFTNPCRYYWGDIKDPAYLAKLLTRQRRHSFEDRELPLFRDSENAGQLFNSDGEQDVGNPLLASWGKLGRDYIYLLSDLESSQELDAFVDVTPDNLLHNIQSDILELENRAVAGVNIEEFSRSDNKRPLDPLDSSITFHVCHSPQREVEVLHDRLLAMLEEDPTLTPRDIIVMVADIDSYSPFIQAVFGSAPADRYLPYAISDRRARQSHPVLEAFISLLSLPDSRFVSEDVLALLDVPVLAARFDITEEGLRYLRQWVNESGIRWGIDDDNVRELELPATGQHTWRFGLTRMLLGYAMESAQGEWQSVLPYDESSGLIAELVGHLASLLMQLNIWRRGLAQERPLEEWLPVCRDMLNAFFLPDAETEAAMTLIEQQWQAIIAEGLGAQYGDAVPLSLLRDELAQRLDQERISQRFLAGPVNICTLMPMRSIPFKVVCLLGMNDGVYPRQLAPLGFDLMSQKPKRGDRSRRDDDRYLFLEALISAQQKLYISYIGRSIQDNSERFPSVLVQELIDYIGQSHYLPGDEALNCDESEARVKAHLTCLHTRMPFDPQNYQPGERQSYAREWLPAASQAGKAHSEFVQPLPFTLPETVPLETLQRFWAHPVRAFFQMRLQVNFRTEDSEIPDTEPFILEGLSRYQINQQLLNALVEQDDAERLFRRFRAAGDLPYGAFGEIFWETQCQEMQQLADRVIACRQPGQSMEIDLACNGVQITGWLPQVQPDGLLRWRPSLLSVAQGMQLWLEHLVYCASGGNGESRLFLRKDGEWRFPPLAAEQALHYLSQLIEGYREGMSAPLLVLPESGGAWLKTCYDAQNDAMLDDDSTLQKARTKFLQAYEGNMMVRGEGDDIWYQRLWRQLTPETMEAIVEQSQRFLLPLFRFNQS
Sequence of Exodeoxyribonuclease V (P08394 whole entry): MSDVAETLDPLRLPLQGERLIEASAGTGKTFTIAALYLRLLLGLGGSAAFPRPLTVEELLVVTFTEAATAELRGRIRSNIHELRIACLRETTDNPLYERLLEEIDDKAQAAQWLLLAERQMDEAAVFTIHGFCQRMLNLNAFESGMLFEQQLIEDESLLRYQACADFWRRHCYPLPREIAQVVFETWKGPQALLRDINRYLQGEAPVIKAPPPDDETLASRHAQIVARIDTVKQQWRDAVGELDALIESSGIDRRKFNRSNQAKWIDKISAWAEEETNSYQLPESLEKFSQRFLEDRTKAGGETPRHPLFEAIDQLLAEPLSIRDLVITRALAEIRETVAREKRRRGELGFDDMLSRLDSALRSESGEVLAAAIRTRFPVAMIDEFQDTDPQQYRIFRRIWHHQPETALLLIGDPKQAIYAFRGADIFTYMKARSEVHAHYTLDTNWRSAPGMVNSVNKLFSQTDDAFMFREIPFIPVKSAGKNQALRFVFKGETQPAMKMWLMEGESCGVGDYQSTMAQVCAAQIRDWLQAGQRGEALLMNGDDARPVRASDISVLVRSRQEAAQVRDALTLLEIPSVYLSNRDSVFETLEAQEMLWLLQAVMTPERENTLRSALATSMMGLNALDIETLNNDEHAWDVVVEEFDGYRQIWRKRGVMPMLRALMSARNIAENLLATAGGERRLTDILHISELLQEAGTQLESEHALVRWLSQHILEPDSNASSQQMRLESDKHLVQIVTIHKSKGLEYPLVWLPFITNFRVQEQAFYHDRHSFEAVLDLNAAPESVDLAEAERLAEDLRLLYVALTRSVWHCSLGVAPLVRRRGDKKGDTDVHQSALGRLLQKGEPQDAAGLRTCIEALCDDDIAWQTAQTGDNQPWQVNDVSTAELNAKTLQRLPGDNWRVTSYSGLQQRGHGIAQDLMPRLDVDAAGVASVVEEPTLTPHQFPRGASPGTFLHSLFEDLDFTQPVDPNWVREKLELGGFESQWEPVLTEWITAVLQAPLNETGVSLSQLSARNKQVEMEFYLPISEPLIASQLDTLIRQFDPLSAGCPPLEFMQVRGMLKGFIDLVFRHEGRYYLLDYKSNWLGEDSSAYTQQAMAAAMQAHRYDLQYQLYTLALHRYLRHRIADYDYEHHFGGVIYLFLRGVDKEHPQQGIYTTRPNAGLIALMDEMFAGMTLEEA

The nature of assay [4]: Counterscreen for AddAB inhibitors: absorbance-based bacterial cell-based high throughput dose response assay for inhibitors of bacterial viability. [Related pubchem assays (depositor defined):AID435030, AID449728, AID449731, AID488942, AID488955, AID488956]. It is filed as functional.
Assay [5] can be described thus: insulin promoter down-regulators in MIN6 cells, imaging, high-content screening, mouse beta cells (AID 1628). It is filed as functional.
Assay [6] in a line: cytotoxicity in MIN6 insulinoma cells, dose response, cytotoxicity control, cell-based, mouse insulinoma (AID 2122).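 Also: confirmatory high-throughput counterscreen run to flag cytotoxic compounds; mouse MIN-6 beta cells carrying an insulin promoter eGFP reporter.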 It is filed as functional.
A short description of assay [7]: Luminescence Cell-Based Dose Retest to Confirm Inhibitors of Cancer Stem Cells. [Related pubchem assays (depositor defined):AID2717, AID2721]. It is filed as functional. Particulars: Homo sapiens.
The nature of assay [8]: cytotoxicity in HMLE control line with eGFP shRNA, dose response, counter-screen for HMLE_sh_ECad selective toxicity project, cell-based, HMLE_sh_eGFP, luminescence (AID 463074).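 Also: HMLE human mammary epithelial cells expressing control shRNA against eGFP.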 It is filed as functional, Homo sapiens.
For assay [9], the target named is Sphingosine 1-phosphate receptor 1 (Homo sapiens, UniProt P21453). Briefly: Late stage counterscreen assay for S1P4 antagonists: Fluorescence dose response cell-based screening assay for antagonists of the Sphingosine 1-Phosphate Receptor 1 (S1P1). [Related pubchem assays (depositor defined):AID1510, AID1524, AID1692, AID1853, AID2332, AID489009, AID489017]. It is filed as functional.
Sequence of Sphingosine 1-phosphate receptor 1 (P21453 whole entry): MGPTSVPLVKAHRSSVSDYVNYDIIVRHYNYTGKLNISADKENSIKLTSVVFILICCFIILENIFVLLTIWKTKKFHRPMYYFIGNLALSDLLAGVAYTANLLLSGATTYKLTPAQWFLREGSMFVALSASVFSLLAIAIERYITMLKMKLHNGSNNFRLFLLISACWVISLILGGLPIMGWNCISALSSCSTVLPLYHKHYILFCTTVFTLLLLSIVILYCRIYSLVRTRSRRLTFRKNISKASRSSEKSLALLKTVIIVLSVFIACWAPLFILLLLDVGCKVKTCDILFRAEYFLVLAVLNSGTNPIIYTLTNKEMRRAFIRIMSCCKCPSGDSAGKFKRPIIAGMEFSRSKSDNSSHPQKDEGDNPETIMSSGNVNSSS

Assay [10] deals with Sphingosine 1-phosphate receptor 2 (Homo sapiens, UniProt O95136). Briefly: Late stage counterscreen assay for S1P4 antagonists: Fluorescence dose response cell-based screening assay for antagonists of the Sphingosine 1-Phosphate Receptor 2 (S1P2). [Related pubchem assays (depositor defined):AID1510, AID1524, AID1692, AID1853, AID2332, AID489009, AID489017]. It is filed as functional.
Sequence of Sphingosine 1-phosphate receptor 2 (O95136 whole entry): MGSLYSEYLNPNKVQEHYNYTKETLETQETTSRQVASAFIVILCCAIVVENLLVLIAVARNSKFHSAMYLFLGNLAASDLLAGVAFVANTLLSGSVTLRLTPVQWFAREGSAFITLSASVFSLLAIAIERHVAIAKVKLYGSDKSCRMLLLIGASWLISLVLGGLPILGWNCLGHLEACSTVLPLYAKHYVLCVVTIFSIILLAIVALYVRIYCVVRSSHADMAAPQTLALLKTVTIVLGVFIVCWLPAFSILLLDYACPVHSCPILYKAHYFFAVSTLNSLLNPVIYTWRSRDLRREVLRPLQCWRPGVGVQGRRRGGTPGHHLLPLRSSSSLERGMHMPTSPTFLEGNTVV

Assay [11] addresses Sphingosine 1-phosphate receptor 3 (Homo sapiens, UniProt Q99500). Briefly: Late stage counterscreen assay for S1P4 antagonists: Fluorescence dose response cell-based screening assay for antagonists of the Sphingosine 1-Phosphate Receptor 3 (S1P3). [Related pubchem assays (depositor defined):AID1510, AID1524, AID1692, AID1853, AID2332, AID489009, AID489017]. It is filed as functional.

Assay [12] concerns the target Sphingosine 1-phosphate receptor 5 (Homo sapiens, UniProt Q9H228). Kind of assay: Late stage counterscreen assay for S1P4 antagonists: Fluorescence dose response cell-based screening assay for antagonists of the Sphingosine 1-Phosphate Receptor 5 (S1P5). [Related pubchem assays (depositor defined):AID1510, AID1524, AID1692, AID1853, AID2332, AID489009, AID489017]. It is filed as functional.

The text below walks through data of ChEMBL document CHEMBL1201862, “PubChem BioAssay data set” (2004).

Molecules are shown by their SMILES. Activity calls are given as the source filed them.

Sequence of Sphingosine 1-phosphate receptor 5 (Q9H228 whole entry): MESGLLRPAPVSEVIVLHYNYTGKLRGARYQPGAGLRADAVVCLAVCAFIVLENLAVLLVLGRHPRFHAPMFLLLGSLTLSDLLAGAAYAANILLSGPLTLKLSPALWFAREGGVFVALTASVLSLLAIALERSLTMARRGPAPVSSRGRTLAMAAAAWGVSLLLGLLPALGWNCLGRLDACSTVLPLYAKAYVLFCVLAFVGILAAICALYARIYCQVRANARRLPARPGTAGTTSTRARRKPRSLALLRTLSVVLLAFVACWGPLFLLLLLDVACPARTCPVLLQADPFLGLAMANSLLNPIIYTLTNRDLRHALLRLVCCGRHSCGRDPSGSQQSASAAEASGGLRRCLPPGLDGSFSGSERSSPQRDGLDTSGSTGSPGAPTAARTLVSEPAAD
Sequence of Sphingosine 1-phosphate receptor 3 (Q99500 whole entry): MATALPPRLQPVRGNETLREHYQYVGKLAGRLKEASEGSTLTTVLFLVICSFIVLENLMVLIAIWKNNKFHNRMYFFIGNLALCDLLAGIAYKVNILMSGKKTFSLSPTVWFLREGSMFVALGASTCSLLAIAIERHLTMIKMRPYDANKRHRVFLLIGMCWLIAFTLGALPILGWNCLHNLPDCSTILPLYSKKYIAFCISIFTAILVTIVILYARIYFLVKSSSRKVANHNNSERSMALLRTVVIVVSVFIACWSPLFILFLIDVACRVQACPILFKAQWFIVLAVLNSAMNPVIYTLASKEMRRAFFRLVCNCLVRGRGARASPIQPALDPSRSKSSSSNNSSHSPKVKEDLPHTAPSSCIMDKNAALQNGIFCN

A word on the EC50: it is the concentration at which the effect is half-maximal. One may read the CC50 as the concentration at which the toxic effect on the cells reaches its halfway point. What is called IC50 is the point on the concentration scale where inhibition reaches its midpoint. With `O=C(NC(=S)NNC(=O)c1cc2ccccc2cc1O)c1ccco1`, the figures for the EC50 in assay [1] and in [3] were 2.19 µM (active) and > 160 µM (inactive), respectively. Besides, the CC50 in the assay on Vero was 14.4 µM (active). Moreover, the IC50 in [2] is > 40.6 µM (inactive); on Exodeoxyribonuclease V, > 119 µM (inactive); in assay [4] it was > 119 µM (inactive).

Take `CCn1c(SCc2ccccc2)nnc1-c1cccs1`: the IC50 in assay [5] was 3.63 µM (active); in assay [6], 2.36 µM (active).

For orientation: AC50 means the midpoint of the concentration-response curve, whichever way the signal moves. With `Cc1ccc(-c2ccc(OC(=O)c3ccc(O)nc3)c(C)c2)cc1`, the half-maximal activity concentration (AC50) is 17.5 µM (active) in [7] and 29.1 µM (active) in [8].

For `COc1cccc(OC)c1NC(=O)c1ccc(-c2cc(Cl)ccc2Cl)o1`, the IC50 in assay [9] was > 25 µM (inactive); in [10], 20.7 µM (inactive); in [11], 10.5 µM (inactive); in [12], > 25 µM (inactive).
